Data from BindingDB's records for doi:10.1021/jm020164l (University of Montreal, 2002).

Target: Delta-type opioid receptor (Homo sapiens, UniProt P41143)
Experiment: In vitro binding affinity against cloned human Opioid receptor delta 1 expressed in HEK 293S cells

Sequence of Delta-type opioid receptor (P41143 whole entry): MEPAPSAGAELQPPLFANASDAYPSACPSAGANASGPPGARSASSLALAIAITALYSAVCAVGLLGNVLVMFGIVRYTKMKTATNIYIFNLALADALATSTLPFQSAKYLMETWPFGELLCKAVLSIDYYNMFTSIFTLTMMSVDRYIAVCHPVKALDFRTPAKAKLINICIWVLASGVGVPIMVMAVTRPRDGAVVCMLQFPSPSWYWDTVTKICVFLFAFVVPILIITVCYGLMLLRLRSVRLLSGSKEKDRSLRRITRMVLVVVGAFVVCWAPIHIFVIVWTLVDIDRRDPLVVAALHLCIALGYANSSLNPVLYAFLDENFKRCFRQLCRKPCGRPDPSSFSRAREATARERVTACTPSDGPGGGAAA

## C[C@H]1C2C3=CC=CCC3[C@@H](Cc3ccccc32)N1C (stereo partly drawn) [16,17-dimethyl-(16S)-17-azatetracyclo[7.6.2.02,7.010,15]heptadeca-2(7),3,5,12,14-pentaene]
  IC50: > 10 µM
